Test results published in US10073084B2, “Predicting allergic reactions” (priority 2010, dated 2018).
Entries after “also recorded” stand apart in the source; their conditions may differ. Where two headings read alike, the source gives them in different places.

Columns and labels:
[1] = from publicly available www.sens-it-iv website; cited from earlier work
[2] = tested on: skin biopsy from the same donor; experiment: Skin explant assay: histological damage grade, compound-treated DC + autologous T cells + autologous skin; conditions: for Grade I (number of skin explants with this histological grade): Grade I = negative; for Total positive: positive (Grade II-IV) explants / explants tested; for Skin Explant Result (grade observed): Table 3
[3] = tested on: IFN-γ; experiment: IFN-γ levels in supernatant of drug treated FastDC co-cultured with autologous cells (FACs); assay type: cell-based, human; conditions: for levels of IFN-γ (in words): FIG. 9
[4] = tested on: skin biopsy from the same donor
[5] = tested on: autologous T cells; experiment: Modified T cell proliferation assay ([3H] thymidine), drug treated FastDC + autologous T cells; assay type: cell-based, human
[6] = tested on: allogeneic T cells; experiment: T cell proliferation assay ([3H]-Thymidine), treated DC with allogeneic T cells (Example 3); assay type: cell-based, human; conditions: FIG. 7C
[7] = tested on: autologous T cells; experiment: T cell proliferation assay ([3H]-Thymidine), treated DC with autologous T cells (Example 3); assay type: cell-based, human
[8] = tested on: CD86, CD83 and HLA-DR; experiment: Flow cytometric analysis of surface markers on treated monocyte-derived dendritic cells; assay type: cell-based, human; conditions: after 24 hours of treatment, non-sensitizers compared with control cells
[9] = tested on: chemokine (C-C motif) receptor 2 (CCR2); experiment: Real-time RT-PCR gene expression in treated dendritic cells: CCR2; assay type: cell-based, human; conditions: 3, 6, 11 and 24 h, single donor, FIG. 6
[10] = tested on: cAMP-responsive element modulator (CREM); experiment: Real-time RT-PCR gene expression in treated dendritic cells: CREM; assay type: cell-based, human; conditions: 3, 6, 11 and 24 h, single donor, FIG. 6
[11] = Table 2, concentrations of Table 1
[12] = Table 2, concentrations of Table 1, positive grade
[13] = FIG. 8 / FIG. 10, FastDC treated 24 hours, five days co-culture

Q: What does the source list for `Sc1nc2ccccc2s1` [2Mercp, 2-mercaptobenzothiazole]?
A: LLNA Class [1]: Moderate; Grade I (number of skin explants with this histological grade) [2, 11]: 1; Grade II (number of skin explants with this histological grade) [2, 12]: 1; Grade III (number of skin explants with this histological grade) [2, 12]: 2; Total positive ([2]; Table 2): 3/4; IFNγ Mean ([3]; Table 3): 628.81

Q: With `CC1(C)S[C@@H]2[C@H](NC(=O)[C@H](N)c3ccc(O)cc3)C(=O)N2[C@H]1C(=O)O` [Amoxo, Amoxicillin] as the compound, how does the “Grade IV (number of skin explants with this histological grade)” value [4] read?
A: The value was 1.

Q: And the Total positive [4]?
A: The Total positive was 4/5.

Q: With `CCOC(=O)c1ccc(N)cc1` [Bz, Benzocaine] as the compound, how does the Total positive ([2]; Table 2) read?
A: Its Total positive is 1/1.

Q: With `O=CC=Cc1ccccc1` [CINN, Cinnamaldehyde] as the compound, how does the “Grade I (number of skin explants with this histological grade)” value ([4]; human, 3 days) read?
A: Its value is 2.

Q: What about the Total positive ([4]; human, 3 days) of the same compound?
A: Its Total positive is 2/4.

Q: What about the “IFNγ Mean” value ([3]; Table 3) of the same compound?
A: The value was 227.76.

Q: What does the source list for `C[S+](C)[O-]` [DMSO, Dimethyl sulfoxide]?
A: Grade I (number of skin explants with this histological grade) [2, 11]: 2; Grade II (number of skin explants with this histological grade) [2, 12]: 1; Total positive ([2]; Table 2): 1/3; Skin Explant Result (grade observed) [2]: Grade I; also recorded: Grade II; autologous T cell proliferation (level in words) [5, 13]: low

Q: What does the source list for `CN(C)C=O` [DMT, Dimethyl formamide]?
A: Grade I (number of skin explants with this histological grade) [2, 11]: 3; Total positive ([2]; Table 2): 0/3; Skin Explant Result (grade observed) [2]: Grade I; IFNγ Mean ([3]; Table 3): 158.59; autologous T cell proliferation (level in words) [5, 13]: low

Q: With `C=CCc1ccc(O)c(OC)c1` [Eugenol] as the compound, how does the “difference in counts per minute (CPM) versus SDS” value [6] read?
A: The value was “greater than two-fold”.

Q: What about the “T cell proliferation response versus SDS-treated DC” value ([7]; summary statement, T cell source not stated, not reproducible) of the same compound?
A: Its value is “Two-fold”.

Q: And the “[3H]-Thymidine count relative to SDS and Triton X-100” value ([7]; treated DC with autologous T cells, FIG. 7B)?
A: Its value is “two-fold”.

Q: What about the “expression of the markers CD86, CD83 and HLA-DR” value [8] of the same compound?
A: Its value is “reduced peak of expression”.

Q: What about the “CCR2 expression, logarithmic fold change (LFC)” value [9] of the same compound?
A: The value was “down-regulated from 3-11 hours and then is up-regulated at 24 hours”.

Q: And the “CREM expression, logarithmic fold change (LFC)” value [10]?
A: The value was “up-regulated until 24 hours when it becomes down-regulated”.

Q: And the “Grade IV (number of skin explants with this histological grade)” value ([4]; human, 3 days)?
A: Its value is 1.

Q: And the Total positive ([4]; human, 3 days)?
A: Its Total positive is 5/5.

Q: What about the “IFNγ Mean” value ([3]; Table 3) of the same compound?
A: The value was 425.66.

Q: Which Total positive ([2]; Table 2) does the source give for `OCC(O)CO` [Gly, Glycerol] here?
A: Its Total positive is 1/4.

Q: What about the “IFNγ Mean” value ([3]; Table 3) of the same compound?
A: The value was 144.28.

Q: And the “autologous T cell proliferation (level in words)” value (“autologous T cell proliferation” below) [5, 13]?
A: The value was “low”.

Q: Which Total positive ([2]; Table 2) does the source give for `CC(C)O` [IP, Isopropanol] here?
A: The Total positive was 0/5.

Q: What about the “IFNγ Mean” value ([3]; Table 3) of the same compound?
A: The value was 207.26.

Q: What about the “autologous T cell proliferation” value [5, 13] of the same compound?
A: Its value is “low”.

Q: Which results are given for `Nc1nnc(-c2cccc(Cl)c2Cl)c(N)n1` [L amot, Lamotrigine]?
A: Grade II (number of skin explants with this histological grade) [2, 12]: 1; Grade III (number of skin explants with this histological grade) [2, 12]: 2; Grade IV (number of skin explants with this histological grade) [2, 12]: 1; Total positive ([2]; Table 2): 4/4

Q: With `N[C@@H](CCC(=O)O)C(=O)O` [LGA, Glutamic Acid] as the compound, how does the “Grade I (number of skin explants with this histological grade)” value [2, 11] read?
A: The value was 2.

Q: What about the “Grade II (number of skin explants with this histological grade)” value [2, 12] of the same compound?
A: The value was 1.

Q: What about the Total positive ([2]; Table 2) of the same compound?
A: Its Total positive is 1/3.

Q: What about the “Skin Explant Result (grade observed)” value ([2]; listed as LGA (glutamic Acid)) of the same compound?
A: The value was “Grade I; also recorded: Grade II”.

Q: And the “IFNγ Mean” value ([3]; Table 3)?
A: Its value is 48.40.

Q: What about the “autologous T cell proliferation” value [5, 13] of the same compound?
A: Its value is “low”.

Q: Which “Grade I (number of skin explants with this histological grade)” value [2, 11] does the source give for `CN(Cc1cnc2nc(N)nc(N)c2n1)c1ccc(C(=O)N[C@@H](CCC(=O)O)C(=O)O)cc1` [MTX, Methotrexate] here?
A: Its value is 1.

Q: What about the Total positive ([2]; Table 2) of the same compound?
A: Its Total positive is 0/1′.

Q: And the “levels of IFN-γ (in words)” value [3]?
A: The value was “low”.

Q: What about the “autologous T cell proliferation” value [5, 13] of the same compound?
A: The value was “low”.

Q: Which results are given for `CN(C)C(=N)N=C(N)N` [Met, Metformin]?
A: Grade I (number of skin explants with this histological grade) [2, 11]: 2; Total positive ([2]; Table 2): 0/2; levels of IFN-γ (in words) [3]: low; autologous T cell proliferation (level in words) [5, 13]: low

Q: Which “Grade I (number of skin explants with this histological grade)” value [4] does the source give for `NC[C@@H]1O[C@H](O[C@H]2[C@@H](O)[C@H](O[C@@H]3[C@@H](O)[C@H](N)C[C@H](N)[C@H]3O[C@H]3O[C@H](CN)[C@@H](O)[C@H](O)[C@H]3N)O[C@@H]2CO)[C@H](N)[C@@H](O)[C@@H]1O` [Neo, Neomycin] here?
A: Its value is 1.

Q: What about the Total positive [4] of the same compound?
A: The Total positive was 4/5.

Q: What does the source list for `CCCCCCCCCCCCOS(=O)(=O)[O-].[Na+]` [SDS, Sodium Dodecyl Sulfate]?
A: expression of the markers CD86, CD83 and HLA-DR [8]: increase in expression; CCR2 expression, logarithmic fold change (LFC) [9]: flipping from a down-regulation to an up-regulation; CREM expression, logarithmic fold change (LFC) [10]: ~0; Total positive ([4]; human): 3/6; IFNγ Mean ([3]; Table 3): 80.33; autologous T cell proliferation (level in words) [5, 13]: low

Q: For `CCC(C)(C)C(=O)O[C@H]1C[C@@H](C)C=C2C=C[C@H](C)[C@H](CC[C@@H]3C[C@@H](O)CC(=O)O3)[C@H]21` [SimV, Simvastatin], which “Grade I (number of skin explants with this histological grade)” value [2, 11] is on record?
A: The value was 2.

Q: And the “Grade III (number of skin explants with this histological grade)” value [2, 12]?
A: Its value is 1.

Q: What about the Total positive ([2]; Table 2) of the same compound?
A: Its Total positive is 1/3.

Q: Which results are given for `O=S(=O)([O-])[O-].[Zn+2]` [ZnSO4, Zinc Sulphate]?
A: LLNA Class [1]: Non sensitiser; Grade I (number of skin explants with this histological grade) [4]: 2; Total positive [4]: 2/4; IFNγ Mean [3]: 13.39; autologous T cell proliferation (level in words) [5]: low

Q: Which results are given for Penicillin?
A: LLNA Class [1]: Weak; Grade II (number of skin explants with this histological grade) [2, 12]: 1; Grade III (number of skin explants with this histological grade) [2, 12]: 3; Total positive ([2]; Table 2): 4/4; Skin Explant Result (grade observed) ([2]; listed as Penicillin G): Grade III; also recorded: Grade II; IFNγ Mean ([3]; Table 3): 549.25

Q: With Triton-X-100 as the compound, how does the “level of incorporation of [3H]-Thymidine” value [6] read?
A: The value was “approximately 100,000 CPM”.

Q: What about the “expression of the markers CD86, CD83 and HLA-DR” value [8] of the same compound?
A: Its value is “increase in expression”.

Q: And the “CCR2 expression, logarithmic fold change (LFC)” value [9]?
A: Its value is “down-regulated after each time period”.

Q: And the “CREM expression, logarithmic fold change (LFC)” value [10]?
A: The value was “up-regulated for each time point”.

Q: And the “Grade I (number of skin explants with this histological grade)” value [4]?
A: Its value is 4.

Q: And the “Skin Explant Result (grade observed)” value [4]?
A: Its value is “Grade I”.

Q: What about the Total positive [4] of the same compound?
A: The Total positive was 0/4.

Q: What about the “IFNγ Mean” value ([3]; Table 3) of the same compound?
A: The value was 33.54.

Q: What about the “autologous T cell proliferation” value [5, 13] of the same compound?
A: The value was “low”.

Q: For Tween 20, which “LLNA Class” value [1] is on record?
A: Its value is “Non sensitiser”.

Q: And the “Grade I (number of skin explants with this histological grade)” value [2, 11]?
A: The value was 2.

Q: And the Total positive ([2]; Table 2)?
A: Its Total positive is 0/2.

Q: And the “Skin Explant Result (grade observed)” value [2]?
A: Its value is “Grade I”.

Q: And the “IFNγ Mean” value ([3]; Table 3)?
A: The value was 188.24.

Q: What about the “autologous T cell proliferation” value [5, 13] of the same compound?
A: Its value is “low”.
